Results reported in patent US9399635B2, “Pyrazole derivative” (GREEN TECH CO., LTD., priority 2011, dated 2016).
Read-outs that look alike come from different tables or passages of the source.

Key:
Aβ 1-42 = target: T1, Aβ 1-42 (Homo sapiens, UniProt P05067); test: Determination of Aβ aggregation inhibitory activity (thioflavin T fluorescence); assay type: biochemical; settings: Aβ 1-42, 37° C. for 24 hours, thioflavin T; read-out: IC50 (μM) Test example 3 (Aβ aggregation inhibitory activity)
T1 construct: Aβ 1-42 (Peptide Institute, Inc.) was dissolved in 0.3% ammonia water; purchased Peptide Institute, Inc
Experimental: Pharmacological test example 3: Determination of Aβ aggregation inhibitory activity
Aβ 1-42 (Peptide Institute, Inc.) was dissolved in 0.3% ammonia water so that the concentration would be 0.5 mM and then diluted with PBS to 20 μM. The test compounds were prepared using DMSO at 100-fold of their final concentrations and adjusted so that the DMSO concentration would be 2%. The Aβ solution and each of the test compound solutions were mixed at an equivalent ratio and the mixtures were incubated at 37° C. for 24 hours. To each of the mixtures, an equal volume of a thioflavin T solution adjusted with a 100 mM Tris-glycine buffer (pH 8.5) to 6 μM was added. The fluorescence intensity was measured with a fluorescence plate reader (excitation wavelength: 440 nm; emission wavelength: 480 nm).
The final concentration of each compound at the time of measurement was set at 0.1, 0.3, 1, 3, and 10 μM. The sample to which only DMSO was added was used as a negative control and its fluorescence intensity was taken as 0% inhibitory activity.

[1] = Evaluation of in vivo pharmacokinetics (blood and brain concentrations, LC-MS/MS); settings: SD rats
Experimental: Pharmacological test example 4: Evaluation of in vivo pharmacokinetics
To SD rats (male, 7 weeks old), the test compound was orally administered (p. o.) at an amount of 50 mg/kg bw or intravenously administered (i.v.) at an amount of 1 mg/kg bw and the concentrations in the blood and brain were measured up to 3 hours. The administration vehicle was an 80% PEG 400 aqueous solution. The blood was collected under isoflurane inhalational anesthesia and the brain was harvested after the rats were sacrificed. The plasma was separated from the blood. The brain was homogenized after addition of a three-fold volume of PBS and then methanol was added thereto. Thus the prepared test samples were subjected to measurement. The measurement was performed by LC-MS/MS (Applied Biosystems and Waters).
The blood concentration changes of the compounds of Example 2 and Example 2 (2) ((1E,6E)-1-(1H-indol-6-yl)-7-[2-methoxy-4-(2-pyridylmethoxy)phenyl]hepta-1,6-diene-3,5-dione) after oral administration (p.o.) thereof are shown in FIG. 2. The brain concentration changes of the compounds after intravenous administration (i.v.) and oral administration (p.o.) thereof are shown in Table 2.

T1 sequence (P05067 672-713): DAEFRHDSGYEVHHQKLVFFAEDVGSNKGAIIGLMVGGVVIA

COc1cc(OCc2ccccn2)ccc1/C=C/c1cc(/C=C/c2ccc3cc[nH]c3c2)[nH]n1 [Example 2, 3-[(1E)-2-(1H-indol-6-yl)ethenyl]-5-[(1E)-2-[2-methoxy-4-(2-pyridylmethoxy)phenyl]ethenyl]-1H-pyrazole]
IC50 (Aβ 1-42): 1.5 µM
blood and brain concentrations compared with the compound of Example 2 (2) ([1]; p.o. 50 mg/kg bw or i.v. 1 mg/kg bw (FIG. 2, Table 2)): higher blood and brain concentrations
concentration at 5 min ([1]; male, rat, intravenous 1 mg/kg bw, 5 min, brain, read-out: brain concentration i.v. 5 min): 48.7 ng/mL
concentration at 180 min ([1]; male, rat, intravenous 1 mg/kg bw, brain, read-out: brain concentration i.v. 180 min): 17.5 ng/mL
concentration at 60 min ([1]; male, rat, oral 50 mg/kg bw, 60 min, brain, read-out: brain concentration p.o. 60 min): 8.54 ± 2.93 ng/mL
concentration at 180 min ([1]; male, rat, oral 50 mg/kg bw, brain, read-out: brain concentration p.o. 180 min): 68.9 ± 39.4 ng/mL
